Test results from patent publication US20240342292A1, “Compounds for the Degradation of EGFR Kinase” (BeiGene Switzerland GmbH, priority 2021, published 2024).

Experiments:
L858R/T790M/C797S EGFR = biological target: T1, L858R/T790M/C797S EGFR (Homo sapiens, UniProt P00533, C797S/L858R/T790M); experiment: EGFR degradation HTRF assay in H1975-clone #25 (LTC) cells; format: cell-based; details: 16h treatment; for DC50: H1975 # 25-LTC (L858R/T790M/C797S), HTRF; for Dmax: NCI-H1975, H1975 # 25-LTC (L858R/T790M/C797S), maximum percentage of degradation
T1 construct: expressed in transfected cells; host or cells: H1975 clone #25 (lentiviral over-expression, endogenous EGFR knocked out by sgRNA)
T1 sequence (P00533 25-1210 T790M/C797S/L858R): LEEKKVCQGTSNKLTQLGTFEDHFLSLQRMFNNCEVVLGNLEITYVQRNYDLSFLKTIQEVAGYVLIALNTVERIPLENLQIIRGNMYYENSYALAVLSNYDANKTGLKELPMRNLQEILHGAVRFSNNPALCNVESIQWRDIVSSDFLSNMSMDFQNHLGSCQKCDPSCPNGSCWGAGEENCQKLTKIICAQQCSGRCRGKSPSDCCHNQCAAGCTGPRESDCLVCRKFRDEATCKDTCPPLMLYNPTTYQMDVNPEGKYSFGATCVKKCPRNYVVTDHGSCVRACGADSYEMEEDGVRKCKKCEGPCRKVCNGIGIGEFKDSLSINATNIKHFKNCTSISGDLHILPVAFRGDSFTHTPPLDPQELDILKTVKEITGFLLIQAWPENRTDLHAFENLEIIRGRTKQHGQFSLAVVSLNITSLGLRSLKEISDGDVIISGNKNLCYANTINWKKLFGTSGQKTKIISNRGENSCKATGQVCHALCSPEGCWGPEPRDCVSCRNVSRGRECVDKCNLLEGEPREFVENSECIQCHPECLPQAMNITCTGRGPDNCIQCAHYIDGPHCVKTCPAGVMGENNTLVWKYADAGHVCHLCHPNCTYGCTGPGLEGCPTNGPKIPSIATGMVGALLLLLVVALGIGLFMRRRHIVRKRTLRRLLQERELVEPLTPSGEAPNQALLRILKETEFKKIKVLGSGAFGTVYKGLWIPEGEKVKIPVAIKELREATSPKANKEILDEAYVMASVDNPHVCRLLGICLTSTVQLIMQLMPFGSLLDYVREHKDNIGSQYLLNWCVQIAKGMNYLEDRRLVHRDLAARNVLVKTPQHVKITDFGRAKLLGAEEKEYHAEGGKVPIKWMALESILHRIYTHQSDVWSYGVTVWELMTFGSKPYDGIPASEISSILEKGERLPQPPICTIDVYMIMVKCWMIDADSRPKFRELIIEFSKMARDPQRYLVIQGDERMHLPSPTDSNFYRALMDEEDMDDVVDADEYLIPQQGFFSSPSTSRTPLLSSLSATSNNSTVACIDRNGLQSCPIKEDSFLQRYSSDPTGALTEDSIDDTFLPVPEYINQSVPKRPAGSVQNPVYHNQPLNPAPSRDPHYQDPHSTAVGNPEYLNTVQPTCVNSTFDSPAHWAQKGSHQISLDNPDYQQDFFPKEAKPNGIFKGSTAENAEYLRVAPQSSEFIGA
Summary of the method: (§1)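 DC50 from a four-parameter fit of HTRF signal. H1975 mutant-EGFR clones with endogenous EGFR knocked out; 16 h treatment, 10 uM top, 5-fold × 8.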

Del19/T790M/C797S EGFR = experiment: EGFR degradation HTRF assay in H1975-clone #28 (DTC) cells; format: cell-based; details: H1975 # 28 DTC (Del19/T790M/C797S), 16h treatment; for DC50: HTRF; for Dmax (%): maximum percentage of degradation
Summary of the method: as §1

| SMILES | DC50 (L858R/T790M/C797S EGFR) [nM] | Dmax (L858R/T790M/C797S EGFR) [%] | DC50 (Del19/T790M/C797S EGFR) [nM] | Dmax (%) (Del19/T790M/C797S EGFR) |
| --- | --- | --- | --- | --- |
| Cc1cc2cc(n1)-c1cnn(C)c1OCCC[C@@H](C)CN1/C(=N/C2=O)Nc2ccc(CN3CC4CC(C3)N4C(=O)[C@@H]3CCN(c4cc(F)c([C@H]5CCC(=O)NC5=O)c(F)c4)C3)cc21 [Example 163, (3R)-3-(2,6-difluoro-4-((3R)-3-(3-(((R,E)-1^1,2^6,7-trimethyl-3-oxo-5^2,5^3-dihydro-1^1H,5^1H-11-oxa-4-aza-5(2,1)-benzo[d]imidazola-2(2,4)-pyridina-1(4,5)-pyrazolacycloundecaphane-5^6-yl)methyl)-3,6-diazabicyclo[3.1.1]heptane-6-carbonyl)pyrrolidin-1-yl)phenyl)piperidine-2,6-dione] | 1.14 | 83.1 | 1.76 | 66.41 |
| Cc1cc2cc(n1)-c1cnn(C)c1OCCC[C@@H](C)CN1/C(=N/C2=O)Nc2ccc(C(=O)N(C)C3CCN(C4CN(c5cc(F)c([C@H]6CCC(=O)NC6=O)c(F)c5)C4)CC3)cc21 [Example 290, (R,E)-N-(1-(1-(4-((R)-2,6-dioxopiperidin-3-yl)-3,5-difluorophenyl)azetidin-3-yl)piperidin-4-yl)-N,1′,2^6,7-tetramethyl-3-oxo-5^2,5′-dihydro-1^1H,5^1H-11-oxa-4-aza-5(2,1)-benzo[d]imidazola-2(2,4)-pyridina-1(4,5)-pyrazolacycloundecaphane-5^6-carboxamide] | 0.644 | 89.1 | 0.64 | 80.73 |
| Cc1cc2cc(n1)-c1cnn(C)c1OCCC[C@@H](C)CN1/C(=N/C2=O)Nc2ccc(C(=O)N3CCC4(CC3)CN(CCc3cc(F)c([C@H]5CCC(=O)NC5=O)c(F)c3)C4)cc21 [Example 310, (R)-3-(2,6-difluoro-4-(2-(7-((R,E)-1^1,2^6,7-trimethyl-3-oxo-5^2,5^3-dihydro-1^1H,5^1H-11-oxa-4-aza-5(2,1)-benzo[d]imidazola-2(2,4)-pyridina-1(4,5)-pyrazolacycloundecaphane-5^6-carbonyl)-2,7-diazaspirononan-2-yl)ethyl)phenyl)piperidine-2,6-dione] | 0.464 | 87.8 | 0.578 | 80.51 |
| Cc1cc2cc(n1)-c1cnn(C)c1OCCC[C@@H](C)CN1/C(=N/C2=O)Nc2ccc(C(=O)OC3CCN(CCc4cc(F)c([C@H]5CCC(=O)NC5=O)c(F)c4)CC3)cc21 [Example 313, 1-(4-((R)-2,6-dioxopiperidin-3-yl)-3,5-difluorophenethyl)piperidin-4-yl (R,E)-1^1,2^6,7-trimethyl-3-oxo-5^2,5^3-dihydro-1^1H,5^1H-11-oxa-4-aza-5(2,1)-benzo[d]imidazola-2(2,4)-pyridina-1(4,5)-pyrazolacycloundecaphane-5^6-carboxylate] | 1.25 | 81 | 0.967 | 70.56 |
| Cc1cc2cc(n1)-c1cnn(C)c1OCCC[C@@H](C)CN1/C(=N/C2=O)Nc2ccc(N3CCN(C4CCN(c5ccc6c(c5)CN([C@H]5CCC(=O)NC5=O)C6=O)CC4)CC3)cc21 [Example 396, (S)-3-(1-oxo-5-(4-(4-((R,E)-1^1,2^6,7-trimethyl-3-oxo-5^2,53-dihydro-1^1H,5^1H-11-oxa-4-aza-5(2,1)-benzo[d]imidazola-2(2,4)-pyridina-1(4,5)-pyrazolacycloundecaphane-5^6-yl)piperazin-1-yl)piperidin-1-yl)isoindolin-2-yl)piperidine-2,6-dione] | 0.622 | 83.6 | 0.681 | 63.49 |
| Cc1cc2cc(n1)-c1cnn(C)c1OCCC[C@@H](C)CN1/C(=N/C2=O)Nc2ccc(C(=O)N[C@H](C)C3CCN(CCc4cc(F)c([C@H]5CCC(=O)NC5=O)c(F)c4)CC3)cc21 [Example 271, (R,E)-N—((R)-1-(1-(4-((R)-2,6-dioxopiperidin-3-yl)-3,5-difluorophenethyl)piperidin-4-yl)ethyl)-1^1,2^6,7-trimethyl-3-oxo-5^2,5^3-dihydro-1^1H,5^1H-11-oxa-4-aza-5(2,1)-benzo[d]imidazola-2(2,4)-pyridina-1(4,5)-pyrazolacycloundecaphane-5^6-carboxamide] | 0.557 | 81.2 | 1.15 | 70.36 |
| Cc1cc2cc(n1)-c1cnn(C)c1OCCC[C@@H](C)CN1/C(=N/C2=O)Nc2ccc(C3CCN(C4CCN(c5cc(F)c([C@H]6CCC(=O)NC6=O)c(F)c5)CC4)CC3)cc21 [Example 332, (R)-3-(2,6-difluoro-4-(4-((R,E)-1^1,2^6,7-trimethyl-3-oxo-5^2,5^3-dihydro-1^1H,5^1H-11-oxa-4-aza-5(2,1)-benzo[d]imidazola-2(2,4)-pyridina-1(4,5)-pyrazolacycloundecaphane-5^6-yl)-[1,4′-bipiperidin]-1′-yl)phenyl)piperidine-2,6-dione] | 0.995 | 91.2 | 1.31 | 86.39 |
| Cc1cc2cc(n1)-c1cnn(C)c1OCC[C@H]1C[C@@H]1CN1/C(=N/C2=O)Nc2ccc(N3CCN(C4CCN(c5ccc(C6CCC(=O)NC6=O)nc5)CC4)CC3)cc21 (stereo partly drawn) [Example 469, 3-(5-(4-(4-((7'S,7^2R,E)-1^1,2^6-dimethyl-3-oxo-5^2,5^3-dihydro-1^1H,5^1H-10-oxa-4-aza-5(2,1)-benzo[d]imidazola-2(2,4)-pyridina-1(4,5)-pyrazola-7(1,2)-cyclopropanacyclodecaphane-5^6-yl)piperazin-1-yl)piperidin-1-yl)pyridin-2-yl)piperidine-2,6-dione] | 0.794 | 82.7 | 0.594 | 76.63 |
| Cc1cc2cc(n1)-c1cnn(C)c1OCCC[C@@H](C)CN1/C(=N/C2=O)Nc2ccc(N3CC(NC4CCN(c5cc(F)c([C@H]6CCC(=O)NC6=O)c(F)c5)CC4)C3)cc21 [Example 454, (R)-3-(2,6-difluoro-4-(4-((1-((R,E)-1^1,2^6,7-trimethyl-3-oxo-5^2,5^3-dihydro-1^1H,5^1H-11-oxa-4-aza-5(2,1)-benzo[d]imidazola-2(2,4)-pyridina-1(4,5)-pyrazolacycloundecaphane-5-yl)azetidin-3-yl)amino)piperidin-1-yl)phenyl)piperidine-2,6-dione] | 1.08 | 86 | 0.765 | 68.28 |
| Cc1cc2cc(n1)-c1cnn(C)c1OCCC[C@@H](C)CN1/C(=N/C2=O)Nc2ccc(N3CCN(CCNc4cc(F)c([C@H]5CCC(=O)NC5=O)c(F)c4)[C@H](CC#N)C3)cc21 [Example 442, 2-((R)-1-(2-((4-((R)-2,6-dioxopiperidin-3-yl)-3,5-difluorophenyl)amino)ethyl)-4-((R,E)-1^1,2^6,7-trimethyl-3-oxo-5^2,5^3-dihydro-1^1H,5^1H-11-oxa-4-aza-5(2,1)-benzo[d]imidazola-2(2,4)-pyridina-1(4,5)-pyrazolacycloundecaphane-5^6-yl)piperazin-2-yl)acetonitrile] | 0.742 | 84.4 | 0.721 | 70.20 |
| Cc1cc2cc(n1)-c1cnn(C)c1OCCC[C@@H](C)CN1/C(=N/C2=O)Nc2ccc(N3CCC(N4CC(Nc5cc(F)c([C@H]6CCC(=O)NC6=O)c(F)c5)C4)CC3)cc21 [Example 392, (R)-3-(2,6-difluoro-4-((1-(1-((R,E)-1^1,2^6,7-trimethyl-3-oxo-5^2,5^3-dihydro-1^1H,5^1H-11-oxa-4-aza-5(2,1)-benzo[d]imidazola-2(2,4)-pyridina-1(4,5)-pyrazolacycloundecaphane-5^6-yl)piperidin-4-yl)azetidin-3-yl)amino)phenyl)piperidine-2,6-dione] | 1.29 | 86.7 | 0.821 | 75.48 |
| Cc1cc2cc(n1)-c1cnn(C)c1OCCC[C@@H](C)CN1/C(=N/C2=O)Nc2ccc(C(=O)N[C@@H]3C[C@H]4CC[C@@H](C3)N4CCc3cc(F)c([C@H]4CCC(=O)NC4=O)c(F)c3)cc21 [Example 264, (R,E)-N—((1R,3S,5S)-8-(4-((R)-2,6-dioxopiperidin-3-yl)-3,5-difluorophenethyl)-8-azabicyclo[3.2.1]octan-3-yl)-1^1,2^6,7-trimethyl-3-oxo-5^2,5^3-dihydro-1^1H,5^1H-11-oxa-4-aza-5(2,1)-benzo[d]imidazola-2(2,4)-pyridina-1(4,5)-pyrazolacycloundecaphane-5^6-carboxamide] | 0.546 | 89.8 | 0.677 | 68.8 |
| Cc1cc2cc(n1)-c1cnn(C)c1OCCC[C@@H](C)CN1/C(=N/C2=O)Nc2ccc(C(=O)N3CCC(C4CN(CCc5cc(F)c([C@H]6CCC(=O)NC6=O)c(F)c5)C4)CC3)cc21 [Example 312, (R)-3-(2,6-difluoro-4-(2-(3-(1-((R,E)-1^1,2^6,7-trimethyl-3-oxo-5^2,5^3-dihydro-1^1H,5^1H-11-oxa-4-aza-5(2,1)-benzo[d]imidazola-2(2,4)-pyridina-1(4,5)-pyrazolacycloundecaphane-5^6-carbonyl)piperidin-4-yl)azetidin-1-yl)ethyl)phenyl)piperidine-2,6-dione] | 0.906 | 85.8 | 0.689 | 47.95 |
